From patent US5244917A, “Substituted naphthofurans as anti-inflammatory agents” (The DuPont Merck Pharmaceutical Company, priority 1992, dated 1993) come the findings set out here.

One assay relates to Platelet phospholipase C. The assay can be described thus: Platelet Phospholipase C Assay. The conditions noted are these: 100,000×g supernatant extract of platelet cells; 3H phosphatidylinositol substrate; mantissa only, the power of ten is printed apart; read-out: PLC IC50. The assay is classed as biochemical. How it is done:
Platelet phospholipase C was measured using a 100,000×g supernatant extract of platelet cells as the enzyme preparation. The assay mixture consisted of (in final concentrations): ^3 H myoinositol phosphatidylinositol, ([…], 0.1Ci), CaCl2 (5 mM), Tris acetate buffer (60 mM, pH 4.5-7.5), sodium deoxycholate (2 mg/ml), platelet supernatant protein heated at 100° C. for 5 min (1 mg/ml), all in a total volume of […].
The assay was performed according to the method of Rittenhouse [Rittenhouse, S., Preparation of Selectively Labeled Phosphoinositol and Assay of Phosphoinositol-specific Phospholipase C in Methods in Enzymology, Lands, W. and Smith, W., eds., 86, 3-11 (1982)]. The hydrolysis of substrate to water soluble product was calculated on the basis of the specific activity of the substrate. The activity of the compounds was expressed as the percent inhibition of control (no compound) PLC hydrolysis. […] Arachidonic acid is the precursor of inflammagens such as leukotrienes and prostaglandins which are involved in the mediation of the inflammatory process.

Another assay deals with A23187-induced ear edema. The assay can be described thus: A23187 Ear Edema Model (murine ear edema protocol). It is filed as in vivo, mouse (male CF-1). To be noted: 100 μg/ear topical in acetone; A23187 10 μg/ear; 6 h; 6 mm punch biopsy weight. How it is done:
To measure anti-inflammatory activities of the investigational compounds the following standard murine ear edema protocol was used. Edema was induced by the calcium ionophore, A23187 (10 μg/ear) [Marks, F., Furstenberger, G., Kownatzki, E., Prostaglandin E Mediated Stimulation of Mouse Epidermis in vivo by Divalent Cation Ionophore A23187 and by Tumor Promotor TPA, Cancer Res., 41, 696-702 (1981)]. Male CF-1 (Charles River) 18-20 grams were used. Investigational compounds (in acetone at 100 μg/ear) were applied to one ear just prior to application of the inflammagen (A23187). Six hours after A23187 application, edema was determined by comparing the weights of 6 mm punch biopsies from control (solvent) and inflammagen-treated ears. Percent inhibition was calculated using standard equations.

What is called IC50 is the point on the concentration scale where inhibition reaches its midpoint.

For `N#Cc1c(N)oc2c1c(Cc1ccccc1)c(O)c1ccccc12` [Example 1, 2-Amino-4-benzyl-3-cyano-5-hydroxynaphtho[1,2-b]furan], the IC50 in the assay with Platelet phospholipase C turned out to be 15 µM. The molecule also gave an A23187 % inhibition with A23187-induced ear edema of 83%.

As for `N#Cc1c(N)oc2c1c(Cc1ccccc1F)c(O)c1ccccc12` [Example 2, 2-amino-4-(2-fluoro)benzyl-3-cyano-5-hydroxynaphtho[1,2-b]furan], the IC50 in the assay with Platelet phospholipase C was 26 µM. Besides, the A23187 % inhibition with A23187-induced ear edema worked out at 71%.

`N#Cc1c(N)oc2c1c(Cc1ccc(F)cc1)c(O)c1ccccc12` [Example 4, 2-amino-4-(4-fluoro)benzyl-3-cyano-5-hydroxynaphtho[1,2-b]furan]: the IC50 with Platelet phospholipase C is 120 µM. This molecule returned an A23187 % inhibition in the assay on A23187-induced ear edema of 58%.

On to `COc1ccc2c(c1)c(O)c(Cc1ccccc1)c1c(C#N)c(N)oc12` [Example 11, 2-amino-4-benzyl-3-cyano-5-hydroxy-7-methoxynaphtho[1,2-b]furan], for which the IC50 in the assay with Platelet phospholipase C is 190 µM. Moreover, the A23187 % inhibition in the assay with A23187-induced ear edema was determined as 82%.

Turning to `COc1ccc2c(O)c(Cc3ccccc3)c3c(C#N)c(N)oc3c2c1` [Example 12, 2-amino-4-benzyl-3-cyano-5-hydroxy-8-methoxynaphtho[1,2-b]furan], in the assay on Platelet phospholipase C, the IC50 is 55 µM.

`COc1ccc2c(O)c(Cc3ccccc3F)c3c(C#N)c(N)oc3c2c1` [Example 16, 2-amino-4-(2-fluoro)benzyl-3-cyano-5-hydroxy-8-methoxynaphtho[1,2-b]furan]: in the assay on Platelet phospholipase C, the half-inhibitory concentration (IC50) was 56 µM.
